# Data reported in US11578081B1, “Crystal form as inhibitor of ACC1 and ACC2, and preparation method therefor and use thereof” (ZHANGZHOU PIEN TZE HUANG PHARMACEUTICAL CO., LTD., priority 2019, dated 2023).
# Key:
# [1] = target: human acetyl-CoA carboxylase 2 (hACC2) (Homo sapiens, UniProt O00763); experiment: In vitro ACC enzyme inhibition (ADP fluorescence), hACC2; type: biochemical; settings: pre-incubated 15 minutes, 1 hour at room temperature
# Method: (§1) To evaluate the ability of a test compound to inhibit acetyl-CoA carboxylase (ACC) by determining the IC50 value.
# (§2) 1. Proteins: human acetyl-CoA carboxylase 1 (hACC1) and human acetyl-CoA carboxylase 2 (hACC2).
# (§3) 3. Cofactors: acetyl-CoA and ATP (adenosine triphosphate)
# (§4) 4. Activator: potassium citrate
# (§5) 1. One-fold enzyme/substrate/cofactor was added to microwells of a well plate.
# (§6) 2. According to an Acoustic technique, a solution of a compound in DMSO was added to the enzyme mixture, and the resulting mixture was pre-incubated for 15 minutes.
# (§7) 3. ATP was added thereto to initiate the reaction, and the mixture was shaken uniformly.
# (§8) 4. The mixture was incubated for 1 hour at room temperature.
# (§9) 5. The reaction was quenched, and then incubated for additional 40 minutes.
# (§10) 6. A detection reagent was added and the resulting mixture was incubated for 30 minutes.
# (§11) 7. Fluorescence was tested.
# (§12) 8. Data analysis was performed: based on the standard curve of ADP, the fluorescence signal was converted to the ADP product concentration and the enzyme activity was calculated. The curve was fitted using Graphpad Prism software to obtain the IC50 value.
# [2] = tested on: HFD+CCl4-induced NASH mouse model; experiment: In vivo pharmacodynamic study in HFD+CCl4-induced NASH mouse model; settings: HFD+CCl4 mice; 0.5, 1, 3 mg/kg by gavage QD day 0 to day 27; reference I-181 3 mg/kg
# Text: To study the effect of a compound on improving NASH and liver fibrosis in an HFD+CCl4 mouse model, with I-181 as a reference compound.
# I-181 is an acetyl-CoA carboxylase inhibitor and is currently undergoing a phase II clinical study on non-alcoholic fatty liver disease (NAFLD). The HFD+CCl4 mouse model used in this study is an animal model that simulates human non-alcoholic fatty liver disease evolving into NASH. High-fat diet leads to fat accumulation and steatosis in liver cells; CCl4 (intraperitoneal injection, twice a week) simulates the “second hit” of liver injury.
# The modeling for this experiment included two steps: high-fat diet feeding and CCl4 induction. Firstly, the mice were fed with high-fat diet to induce non-alcoholic fatty liver, and the mice weighing more than (>) 38 g were selected and continuously fed with high-fat diet, accompanied by the intraperitoneal injection of 25% CCl4 ([…], twice a week, for a total of four weeks). The day of starting CCl4 administration was set as day 0, and the time of starting CCl4 administration was set as hour 0. On the day of starting CCl4 administration, the administration by gavage was started, and the administration volume of each group was 5 mL/kg, once a day for 4 weeks (28 days). The injection time of CCl4 should be more than 4 hours apart from the first administration time point of the day. […]
# [3] = Pharmacokinetic evaluation in C57BL/6 mice; type: in vivo; settings: mouse, plasma, male C57BL/6 mice
# Method: To test the pharmacokinetics of the compound in C57BL/6 mice Experimental materials:
# C57BL/6 mice (male, 18 to 30 g, 7 to 9 weeks old, Shanghai Lingchang Biotechnology Co., Ltd.)
# A clear solution of a test compound (0.5 mg/ml, 10% DMSO, 10% polyethylene glycol stearate, and 80% water) was injected via tail veins into 4 male C57BL/6 mice (overnight fasting, 7 to 9 weeks old), at a dose of 2.0 mg/kg. A suspension of the test compound or the clear solution thereof (1 mg/ml, 10% PEG400, 90% (0.5% methylcellulose+0.2% Tween 80)) was administered by gavage to 4 male C57BL/6 mice (overnight fasting, 7 to 9 weeks old), at a dose of 10 mg/kg.
# Two mice were set in a group and subjected to blood sampling alternatively, with 4 to 5 blood sampling time points per mouse. At 0.0833 h (IV group only), 0.25 h, 0.5 h, 1.0 h, 2.0 h, 4.0 h, 6.0 h, 8.0 h, and 24 h after the mice were administered intravenously or by gavage, about 30 μL of blood was collected by saphenous vein puncture and placed in an anticoagulation tube supplemented with EDTA-K2, and the plasma was separated by centrifugation. The LC-MS/MS method was used to determine the blood drug concentration, and the WinNonlin™ Version 6.3 (Pharsight, Mountain View, Calif.) pharmacokinetic software was used to calculate the relevant pharmacokinetic parameters by the non-compartmental model linear logarithmic trapezoidal method.
# [4] = target: human acetyl-CoA carboxylase 1 (hACC1) (Homo sapiens, UniProt Q13085); experiment: In vitro ACC enzyme inhibition (ADP fluorescence), hACC1; type: biochemical; settings: pre-incubated 15 minutes, 1 hour at room temperature
# Method: as §1, §2, §3, §4, §5, §6, §7, §8, §9, §10, §11, §12
# [5] = Physical stability test of crystal form A as a solid under temperature, humidity and light (XRPD); type: physicochemical; settings: 60° C. and 92.5% RH for 5 and 10 days; ICH visible and UV light; 60° C./75% RH 1 and 2 months; 40° C./75% RH 1, 2 and 3 months
# Method: In order to evaluate the solid stability of a crystal form A, the influencing factors (high temperature, high humidity and light), accelerated stability conditions and intermediate stability conditions were investigated for the crystal form A.
# The crystal form A was placed under high temperature (60° C., closed dish) and high humidity (room temperature, 92.5% RH (relative humidity), wrapped in a parafilm with 5 to 10 small holes) for 5 days and 10 days. According to ICH conditions (visible illuminance reached 1.2E06 Lux·hrs, and ultraviolet illuminance reached 200 W·hrs/m^2), the crystal form A was placed under visible light and ultraviolet light (the shading control group was wrapped in tin foil) in closed dish, and meanwhile, the crystal form A was placed under accelerated stability conditions (60° C./75% RH, wrapped in a parafilm with 5 to 10 small holes) for 1 and 2 months, and under intermediate stability conditions (40° C./75% RH, wrapped in a parafilm with 5 to 10 small holes) for 1, 2 and 3 months. The samples after placement were characterized by XRPD to detect the change of the crystal form.
# Sequence of human acetyl-CoA carboxylase 2 (hACC2) (O00763 whole entry): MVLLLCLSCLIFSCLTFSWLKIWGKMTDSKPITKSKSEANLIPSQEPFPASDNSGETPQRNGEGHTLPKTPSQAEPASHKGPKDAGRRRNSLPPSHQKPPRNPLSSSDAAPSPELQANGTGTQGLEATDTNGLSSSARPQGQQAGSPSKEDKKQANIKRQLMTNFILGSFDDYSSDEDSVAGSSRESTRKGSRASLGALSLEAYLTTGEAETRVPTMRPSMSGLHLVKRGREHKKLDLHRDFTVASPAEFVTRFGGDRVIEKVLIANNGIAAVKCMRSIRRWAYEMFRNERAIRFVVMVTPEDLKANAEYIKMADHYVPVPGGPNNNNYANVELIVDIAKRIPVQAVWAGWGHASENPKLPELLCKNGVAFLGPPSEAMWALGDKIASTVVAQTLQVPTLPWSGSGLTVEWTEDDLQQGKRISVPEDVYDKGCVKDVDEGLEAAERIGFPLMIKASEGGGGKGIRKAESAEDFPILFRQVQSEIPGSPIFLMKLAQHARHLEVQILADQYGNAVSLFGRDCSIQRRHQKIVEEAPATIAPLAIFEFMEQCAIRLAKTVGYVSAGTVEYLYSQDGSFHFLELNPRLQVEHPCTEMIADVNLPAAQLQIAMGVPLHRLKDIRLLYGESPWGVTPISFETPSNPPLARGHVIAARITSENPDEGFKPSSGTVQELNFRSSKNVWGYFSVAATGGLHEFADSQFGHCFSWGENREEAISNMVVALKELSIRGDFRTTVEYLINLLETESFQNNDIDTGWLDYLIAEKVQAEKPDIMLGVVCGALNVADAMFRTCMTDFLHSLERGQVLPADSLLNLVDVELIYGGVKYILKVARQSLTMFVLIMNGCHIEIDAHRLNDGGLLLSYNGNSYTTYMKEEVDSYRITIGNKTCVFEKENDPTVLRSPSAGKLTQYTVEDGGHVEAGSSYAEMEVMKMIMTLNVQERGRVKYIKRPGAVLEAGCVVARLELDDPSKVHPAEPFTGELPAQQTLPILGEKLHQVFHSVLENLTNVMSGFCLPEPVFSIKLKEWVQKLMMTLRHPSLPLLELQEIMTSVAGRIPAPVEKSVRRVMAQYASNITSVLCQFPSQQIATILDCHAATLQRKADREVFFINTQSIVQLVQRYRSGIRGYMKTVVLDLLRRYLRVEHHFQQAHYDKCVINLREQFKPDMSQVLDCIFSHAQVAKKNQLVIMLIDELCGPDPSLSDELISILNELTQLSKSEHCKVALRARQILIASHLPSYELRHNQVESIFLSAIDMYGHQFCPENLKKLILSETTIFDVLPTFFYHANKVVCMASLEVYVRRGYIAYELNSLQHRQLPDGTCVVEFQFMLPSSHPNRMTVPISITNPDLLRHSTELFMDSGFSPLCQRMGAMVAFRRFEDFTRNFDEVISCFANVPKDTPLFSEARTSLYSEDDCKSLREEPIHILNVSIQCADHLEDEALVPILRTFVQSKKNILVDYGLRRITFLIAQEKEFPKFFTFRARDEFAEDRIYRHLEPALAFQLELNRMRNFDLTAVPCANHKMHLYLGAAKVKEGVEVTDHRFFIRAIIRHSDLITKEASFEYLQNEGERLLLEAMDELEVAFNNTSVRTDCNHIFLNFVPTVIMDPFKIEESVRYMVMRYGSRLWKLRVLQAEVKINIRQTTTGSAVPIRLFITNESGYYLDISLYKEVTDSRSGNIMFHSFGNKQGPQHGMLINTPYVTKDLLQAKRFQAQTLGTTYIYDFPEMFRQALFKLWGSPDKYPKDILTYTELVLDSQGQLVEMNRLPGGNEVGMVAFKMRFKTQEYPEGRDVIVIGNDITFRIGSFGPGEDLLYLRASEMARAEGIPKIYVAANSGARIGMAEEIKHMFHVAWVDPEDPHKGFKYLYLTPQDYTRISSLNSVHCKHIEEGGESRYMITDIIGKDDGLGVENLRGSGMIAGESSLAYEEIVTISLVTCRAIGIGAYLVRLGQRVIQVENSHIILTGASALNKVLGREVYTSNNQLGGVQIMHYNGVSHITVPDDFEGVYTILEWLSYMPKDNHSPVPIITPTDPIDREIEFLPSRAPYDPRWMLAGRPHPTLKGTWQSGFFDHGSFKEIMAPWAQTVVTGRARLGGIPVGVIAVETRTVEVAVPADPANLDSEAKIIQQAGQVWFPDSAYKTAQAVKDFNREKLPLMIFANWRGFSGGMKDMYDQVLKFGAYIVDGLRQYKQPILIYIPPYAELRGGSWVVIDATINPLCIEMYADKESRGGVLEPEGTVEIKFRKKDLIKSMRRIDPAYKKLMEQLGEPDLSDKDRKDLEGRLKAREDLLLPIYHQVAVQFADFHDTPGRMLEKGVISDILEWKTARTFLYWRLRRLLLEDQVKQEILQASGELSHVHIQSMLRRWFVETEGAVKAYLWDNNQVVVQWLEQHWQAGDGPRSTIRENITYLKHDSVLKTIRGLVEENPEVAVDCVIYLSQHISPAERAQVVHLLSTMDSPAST
Compound,IC50 [1] [µM],Efficacy on NAS versus reference compound [2],Efficacy on fibrosis versus reference compound [2],"bioavailability ([3]; po, gavage 10 mg/kg vs IV 2.0 mg/kg, read-out: Bioavailability F) [%]","clearance ([3]; IV 2.0 mg/kg and gavage 10 mg/kg study, route per parameter not given, read-out: Clearance rate) [L/h/kg]","AUC ([3]; IV 2.0 mg/kg and gavage 10 mg/kg study, route per parameter not given, read-out: Concentration integral AUC) [µM·h]","half-life ([3]; IV 2.0 mg/kg and gavage 10 mg/kg study, route per parameter not given, read-out: Half-life T1/2 (converted)) [h]",IC50 [4] [µM],Change of the crystal form (XRPD) after placement [5]
COc1ccccc1[C@H](Cn1nc(C(C)(C)C(=O)O)c(=O)c2c(C)c(-c3ncco3)sc21)OC1CCOCC1 [Compound of formula (I)],0.0103,achieves the same efficacy as the reference compound at a higher dose,achieves the same efficacy as the reference compound at a higher dose,66.7,1.64,7.21,1.85,0.0141,–
COc1ccccc1[C@H](Cn1nc(C(C)(C)C(=O)O)c(=O)c2c(C)c(-c3ncco3)sc21)OC1CCOCC1 [crystal form A],–,–,–,–,–,–,–,–,remains unchanged under all stability conditions
